Reference: patent US20240390352A1, “PHARMACEUTICAL COMPOSITION FOR PREVENTING OR TREATING CANCER COMPRISING CARNITINE ACYLCARNITINE CARRIER INHIBITOR AND ANTITUMOR AGENT” (NEW CANCER CURE - BIO CO.,LTD., priority 2021, published 2024)

Experiments:
Format in all cases: cell-based
[1] = test system: HCT-116 cells; assay: SRB assay cancer cell growth rate, HCT-116; conditions: relative to control (100%), 48 hours, KN510 200 μM, irinotecan 2.5 μM, 5-FU 5 μM, gemcitabine 2.5 μM, paclitaxel 10 nM, cisplatin 1 μM, alone or KN510 + anticancer drug
[2] = test system: CAKI-1 cells; assay: SRB assay cancer cell growth rate, CAKI-1; conditions: relative to control (100%), 48 hours, KN510 200 μM, irinotecan 2.5 μM, 5-FU 5 μM, gemcitabine 2.5 μM, paclitaxel 10 nM, cisplatin 1 μM, alone or KN510 + anticancer drug
[3] = test system: ACHN cells; assay: SRB assay cancer cell growth rate, ACHN; conditions: relative to control (100%), 48 hours, KN510 200 μM, irinotecan 2.5 μM, 5-FU 5 μM, gemcitabine 2.5 μM, paclitaxel 10 nM, cisplatin 1 μM, alone or KN510 + anticancer drug
[4] = test system: UACC62 cells; assay: SRB assay cancer cell growth rate, UACC62; conditions: relative to control (100%), 48 hours, KN510 200 μM, irinotecan 2.5 μM, 5-FU 5 μM, gemcitabine 2.5 μM, paclitaxel 10 nM, cisplatin 1 μM, alone or KN510 + anticancer drug
[5] = test system: UACC257 cells; assay: SRB assay cancer cell growth rate, UACC257; conditions: relative to control (100%), 48 hours, KN510 200 μM, irinotecan 2.5 μM, 5-FU 5 μM, gemcitabine 2.5 μM, paclitaxel 10 nM, cisplatin 1 μM, alone or KN510 + anticancer drug
[6] = test system: OVCAR-8 cells; assay: SRB assay cancer cell growth rate, OVCAR-8; conditions: relative to control (100%), 48 hours, KN510 200 μM, irinotecan 2.5 μM, 5-FU 5 μM, gemcitabine 2.5 μM, paclitaxel 10 nM, cisplatin 1 μM, alone or KN510 + anticancer drug
[7] = test system: A549 cells; assay: SRB assay cancer cell growth rate, A549; conditions: relative to control (100%), 48 hours, KN510 200 μM, irinotecan 2.5 μM, 5-FU 5 μM, gemcitabine 2.5 μM, paclitaxel 10 nM, cisplatin 1 μM, alone or KN510 + anticancer drug
[8] = test system: PC-3 cells; assay: SRB assay cancer cell growth rate, PC-3; conditions: relative to control (100%), 48 hours, KN510 200 μM, irinotecan 2.5 μM, 5-FU 5 μM, gemcitabine 2.5 μM, paclitaxel 10 nM, cisplatin 1 μM, alone or KN510 + anticancer drug
[9] = test system: SR cells; assay: SRB assay cancer cell growth rate, SR; conditions: relative to control (100%), 48 hours, KN510 200 μM, irinotecan 2.5 μM, 5-FU 5 μM, gemcitabine 2.5 μM, paclitaxel 10 nM, cisplatin 1 μM, alone or KN510 + anticancer drug
[10] = test system: K562 cells; assay: SRB assay cancer cell growth rate, K562; conditions: relative to control (100%), 48 hours, KN510 200 μM, irinotecan 2.5 μM, 5-FU 5 μM, gemcitabine 2.5 μM, paclitaxel 10 nM, cisplatin 1 μM, alone or KN510 + anticancer drug
[11] = test system: colon cancer cell lines HCT-116 cells and COLO-205 cells; assay: Synergistic effect of omeprazole and anticancer drug, colon cancer cell lines; conditions: anticancer drug combined with omeprazole (KN510) versus each treatment alone
[12] = test system: renal cell carcinoma cell lines CAKI-1 and ACHN cells; assay: Synergistic effect of omeprazole and anticancer drug, renal cancer cell lines; conditions: anticancer drug combined with omeprazole (KN510) versus each treatment alone
[13] = test system: liver cancer cell lines SK-HEP-1 cells and Huh-7 cells; assay: Synergistic effect of omeprazole and anticancer drug, liver cancer cell lines; conditions: anticancer drug combined with omeprazole (KN510) versus each treatment alone
[14] = test system: glioblastoma (GBM) cell lines, U-87 MG cells and T87G cells; assay: Synergistic effect of omeprazole and anticancer drug, glioblastoma cell lines; conditions: anticancer drug combined with omeprazole (KN510) versus each treatment alone
[15] = test system: melanoma cell lines UACC62 cells and UACC257 cells; assay: Synergistic effect of omeprazole and anticancer drug, melanoma cell lines; conditions: anticancer drug combined with omeprazole (KN510) versus each treatment alone
[16] = test system: pancreatic ductal adenocarcinoma (PDAC) cell lines, MIA PaCa-2 cells and PANC-1 cells; assay: Synergistic effect of omeprazole and anticancer drug, pancreatic cancer cell lines; conditions: anticancer drug combined with omeprazole (KN510) versus each treatment alone
[17] = test system: MKN-28 cells and AGS cells, stomach cancer cells; assay: Synergistic effect of omeprazole and anticancer drug, stomach cancer cells; conditions: anticancer drug combined with omeprazole (KN510) versus each treatment alone
[18] = test system: ovarian cancer cells, OVCAR-8 cells and SK-OV-3 cells; assay: Synergistic effect of omeprazole and anticancer drug, ovarian cancer cells; conditions: anticancer drug combined with omeprazole (KN510) versus each treatment alone
[19] = test system: A549 and H23 lung cancer cells; assay: Synergistic effect of omeprazole and anticancer drug, lung cancer cells; conditions: anticancer drug combined with omeprazole (KN510) versus each treatment alone
[20] = test system: breast cancer cells, MDA-MB-231 cells and MCF-7 cells; assay: Synergistic effect of omeprazole and anticancer drug, breast cancer cells; conditions: anticancer drug combined with omeprazole (KN510) versus each treatment alone
[21] = test system: prostate cancer cells, PC-3 cells and DU-145 cells; assay: Synergistic effect of omeprazole and anticancer drug, prostate cancer cells; conditions: anticancer drug combined with omeprazole (KN510) versus each treatment alone
[22] = test system: leukemia cells, SR cells and K562 cells; assay: Synergistic effect of omeprazole and anticancer drug, leukemia cells; conditions: anticancer drug combined with omeprazole (KN510) versus each treatment alone

SMILES	HCT-116 growth rate average (%) [1]	CAKI-1 growth rate average (%) [2]	ACHN growth rate average (%) [3]	UACC62 growth rate average (%) [4]	UACC257 growth rate average (%) [5]	OVCAR-8 growth rate average (%) [6]	A549 growth rate average (%) [7]	PC-3 growth rate average (%) [8]	SR growth rate average (%) [9]	K562 growth rate average (%) [10]	synergistic effect of omeprazole and an anticancer drug in combination, colon cancer [11]	synergistic effect of omeprazole and an anticancer drug in combination, renal cell carcinoma [12]	synergistic effect of omeprazole and an anticancer drug in combination, liver cancer [13]	synergistic effect of omeprazole and an anticancer drug in combination, glioblastoma (GBM) [14]	synergistic effect of omeprazole and an anticancer drug in combination, melanoma [15]	synergistic effect of omeprazole and an anticancer drug in combination, pancreatic cancer (PDAC) [16]	synergistic effect of omeprazole and an anticancer drug in combination, stomach cancer [17]	synergistic effect of omeprazole and an anticancer drug in combination, ovarian cancer [18]	synergistic effect of omeprazole and an anticancer drug in combination, lung cancer [19]	synergistic effect of omeprazole and an anticancer drug in combination, breast cancer [20]	other results
CCc1c2c(nc3ccc(OC(=O)N4CCC(N5CCCCC5)CC4)cc13)-c1cc3c(c(=O)n1C2)COC(=O)[C@]3(O)CC [Irinotecan]	41.85%	44.74%	42.20%	−35.63%	21.87%	4.70%	16.54%	33.84%	6.26%	46.54%	Positive effect	Positive effect	Positive effect	Positive effect	Positive effect	Positive effect	Negative effect	Negative effect	Negative effect	Positive effect	synergistic effect of omeprazole and an anticancer drug in combination, colon cancer ([11]; listed as irinotecan): significantly inhibited; synergistic effect of omeprazole and an anticancer drug in combination, renal cell carcinoma ([12]; listed as irinotecan): significantly inhibited; synergistic effect of omeprazole and an anticancer drug in combination, liver cancer ([13]; listed as irinotecan): significantly inhibited; synergistic effect of omeprazole and an anticancer drug in combination, glioblastoma (GBM) ([14]; listed as irinotecan): significantly inhibited; synergistic effect of omeprazole and an anticancer drug in combination, melanoma ([15]; listed as irinotecan): significantly inhibited; synergistic effect of omeprazole and an anticancer drug in combination, pancreatic cancer (PDAC) ([16]; listed as irinotecan): significantly inhibited; synergistic effect of omeprazole and an anticancer drug in combination, breast cancer ([20]; listed as irinotecan): significantly inhibited; synergistic effect of omeprazole and an anticancer drug in combination, prostate cancer [21]: Negative effect; synergistic effect of omeprazole and an anticancer drug in combination, leukemia [22]: Positive effect; synergistic effect of omeprazole and an anticancer drug in combination, leukemia ([22]; listed as irinotecan): significantly inhibited
CC(=O)O[C@H]1C(=O)[C@@]2(C)[C@H]([C@H](OC(=O)c3ccccc3)[C@]3(O)C[C@H](OC(=O)[C@H](O)[C@@H](NC(=O)c4ccccc4)c4ccccc4)C(C)=C1C3(C)C)[C@]1(OC(C)=O)CO[C@@H]1C[C@@H]2O [Paclitaxel]	17.70%	17.70%	0.91%	48.36%	35.43%	12.64%	22.67%	32.49%	94.83%	59.27%	Positive effect	Negative effect	Negative effect	Positive effect	Positive effect	Positive effect	Positive effect	Negative effect	Positive effect	Negative effect	synergistic effect of omeprazole and an anticancer drug in combination, colon cancer ([11]; listed as paclitaxel): significantly inhibited; synergistic effect of omeprazole and an anticancer drug in combination, glioblastoma (GBM) ([14]; listed as paclitaxel): significantly inhibited; synergistic effect of omeprazole and an anticancer drug in combination, melanoma ([15]; listed as paclitaxel): significantly inhibited; synergistic effect of omeprazole and an anticancer drug in combination, pancreatic cancer (PDAC) ([16]; listed as paclitaxel): significantly inhibited; synergistic effect of omeprazole and an anticancer drug in combination, stomach cancer ([17]; listed as paclitaxel): significantly inhibited; synergistic effect of omeprazole and an anticancer drug in combination, lung cancer ([19]; listed as paclitaxel): significantly inhibited; synergistic effect of omeprazole and an anticancer drug in combination, prostate cancer [21]: Negative effect; synergistic effect of omeprazole and an anticancer drug in combination, leukemia [22]: Positive effect; synergistic effect of omeprazole and an anticancer drug in combination, leukemia ([22]; listed as paclitaxel): significantly inhibited
